Data: publication PMC8742647 (Clinical and Translational Science, 2021)

Tests used:
[1] = fraction unbound in plasma, equilibrium dialysis; format: in vitro ADME, humans; details: fraction unbound in human plasma
[2] = fraction unbound in plasma, equilibrium dialysis; format: in vitro ADME, Sprague–Dawley rat; details: fraction unbound in rat plasma
[3] = total clearance after intravenous administration to PXB-mice; format: in vivo, PXB‐mice (chimeric mice with humanized livers); details: intravenous cassette dose 0.1 mg/kg, N = 3, noncompartmental analysis
[4] = total clearance after intravenous administration to rats; format: in vivo, Sprague–Dawley rats; details: intravenous cassette dose 0.1 mg/kg, N = 3
[5] = prediction of CLt,human by single-species allometric scaling from PXB-mice; set-up: species or system humans
[6] = prediction of CLt,human by physiologically based scaling using PXB-mice; set-up: species or system humans
[7] = prediction of CLt,human by in vitro–in vivo extrapolation; set-up: species or system humans
[8] = ref Table S1; cited from earlier work
[9] = ref Table S1; cited from earlier work; remark: listed apart in the source
[10] = humans; ref Table S1; cited from earlier work
[11] = prediction of CLt,human by multispecies allometric scaling, rule of exponent

f u,p, Humans [1]: 0.148 | f u,p, Rats [2]: 0.169 | CLt, PXB‐mice [3]: 99.67 mL/min/kg | CLt, Rats [4]: 42.22 mL/min/kg | Fold error (predicted/observed), PXB‐SSS ([5]; predicted/observed CLt,human): 0.34 | Predicted CLt,human, PXB‐SSS ([5]; scaled from CLt in PXB-mice, exponent 0.75): 12.8 mL/min/kg | Predicted CLt,human, PXB‐PBS ([6]; from CLt in PXB-mice, dispersion model, CLint per hepatocyte assumed equal): 16.4 mL/min/kg | Fold error (predicted/observed), PXB‐PBS ([6]; predicted/observed CLt,human): 0.44 | Predicted CLt,human, IVIVE ([7]; from in vitro CLint per human hepatocyte, dispersion model): 15.5 mL/min/kg | Fold error (predicted/observed), IVIVE ([7]; predicted/observed CLt,human): 0.41 | Predicted CLt,human, ROE ([11]; from CLt in rats, monkeys and dogs): 8.6 mL/min/kg | Fold error (predicted/observed), ROE ([11]; predicted/observed CLt,human): 0.23 | Predicted CLt,human, FCIM (from CLt in rats, monkeys and dogs and fu,p ratio rat/human): 7.6 mL/min/kg | Fold error (predicted/observed), FCIM (predicted/observed CLt,human): 0.20
Compound: CCNC(=O)OC1CCN(c2nncc3cc(OC)c(OC)cc23)CC1 [Carbazeran]
CLt, Monkeys [8]: 87.87 mL/min/kg | CLt, Dogs [9]: 11.5 mL/min/kg | Observed CLt,human [10]: 37.6 mL/min/kg
